The text below walks through data of a melting point compilation (Tetko et al.; mined from patent text by program, amines drawn as free bases though some values may be those of a salt).

What is called melting point is the temperature of the solid-liquid transition.

Each structure is given as a SMILES string.

Regarding `C=CCN(c1ncnc2c1ncn2CC(C)O)C1CCCCC1` (centres undefined), the melting point fell in the range of 108 to 110 °C.

With `O=C(Cc1ccc(Cl)c(Cl)c1)N1CCCC(N2CCCC2)C1` (centres undefined), the melting point is 134 to 135 °C.

In turn, `CCOC(=O)Cc1nnc(-c2ccc(OC)cc2)n1-c1ccc(OC)cc1` yielded a melting point of 156 °C.

With `CS(=O)(=O)Nc1ccc(-n2nc(C(F)(F)F)nc2-c2ccc(S(C)(=O)=O)cc2)cc1`, the melting point came out at 188 °C.

The compound `CC(C)(C)OC(=O)N1CCn2c(C(=O)N[C@@H](Cc3ccccc3)[C@H](O)CNC3(c4cccc(C(F)(F)F)c4)CC3)cc(C(=O)O)c2C1` yielded a melting point of 134 °C.

Compound `Cc1nc2c(N)nc3cnccc3c2n1CC(C)C` yielded a melting point of 322 to 324 °C.

In the case of `COC(=O)c1ccc(OCC2CC(=O)N(c3ccc(OS(C)(=O)=O)cc3)C2)cc1` (centres undefined), the melting point fell in the range of 111 to 113 °C.

Consider `COC(=O)/C=C/C=C(/c1ccc(OC)cc1)c1cccs1`, for which the melting point lay within 97 to 99 °C.

For the compound `CCN(CC)CCCNC(=O)Cn1ncc(-c2ccc(C#N)cc2)c1-c1ccccc1`, the melting point is 100 to 101 °C.

For `CCOC(=O)C(Cc1c([N+](=O)[O-])ccc(C)c1C)(NC(C)=O)C(=O)OCC`, the melting point is 112 to 113 °C.

Compound `O=[N+]([O-])c1ccc2c(c1)C(O)Cc1ccc(F)cc1S2` (centres undefined) displayed a melting point of 149 to 151 °C.

The compound `O=C1NC(=O)C(Cc2ccc(OC3CCN(C(=O)OCc4ccccc4)CC3)cc2)S1` (centres undefined) gave a melting point of 72 to 74 °C.

Regarding `NC(=O)c1sc2nc(N3CCC(NCC(O)c4ccccn4)CC3)cc(C(F)(F)F)c2c1N` (centres undefined), the melting point is 165 to 167 °C.

Consider `Cc1ccc(C(=S)c2ccc3n2CCCC3C#N)cc1` (centres undefined), for which the melting point is 118 to 119 °C.

The compound `OCCC1Cc2ccccc2C1O` (centres undefined) had a melting point of 80 to 82 °C.

The compound `CC(C)(Sc1ccc2c(-c3ccc(Cl)cc3)noc2c1)C(=O)O` came in with a melting point of 176 to 177 °C.

In the case of `CN1C(=O)CC(c2ccccc2)C1C(O)c1ccc(C(=O)Nc2ccccc2)s1` (centres undefined), the melting point was 223 to 227 °C.

In the case of `CCC(=O)c1ccc(OC)c(C)c1C`, the melting point fell in the range of 39 to 40 °C.

The compound `CSc1ccc(C=O)cc1OC(C)C` returned a melting point of 50 to 54 °C.

The compound `NS(=O)(=O)c1cc(C(=O)O)cc(SCc2ccsc2)c1Oc1ccccc1` returned a melting point of 222 to 224 °C.

Take `Cc1nc(N2CCN(Cc3ccc(C(F)(F)F)cc3)C2=O)sc1-c1cnco1`: the melting point fell in the range of 160 to 162 °C.

The compound `COC(=O)C[C@@H]1C[C@@H](COc2ccc(-c3ccc(C#N)cc3)cc2)NC1=O` gave a melting point of 138 to 140 °C.

The compound `CC(C)n1nc(-c2nc(Br)c(N=S(C)C)nc2-c2ccccc2)ccc1=O` had a melting point of 220 to 224 °C.

As for `COCCN1CCc2cc(OC)c(O)cc2C1C1(c2ccccc2Cl)CC1` (centres undefined), the melting point lay in the range of 115 to 120 °C.

Consider `N[C@@H](Cc1ccc(C(F)(F)F)cc1)[C@H](O)c1ccc(Oc2ccccc2)cc1` (racemic), for which the melting point lay in the range of 114 to 115 °C.

Turning to `N#CCCCCCCCCNS(=O)(=O)c1cccc(Cl)c1`, the melting point was in the range of 42 to 43 °C.

In turn, `CCCCCCCCCc1ccc(-c2ccc(OCC(OC3CCCCO3)C(F)(F)F)nn2)cc1` (centres undefined) displayed a melting point of 96.1 °C.

Regarding `O=C(O)C(O)N1C(=O)CCN1c1cccc(C(F)(F)F)c1` (centres undefined), the melting point is 142 to 144 °C.

On to `CSc1ccc2ncc(N)c(-c3ccccc3)c2c1`, for which the melting point is 135 to 137 °C.

Turning to `CC(C)n1nc(-c2sc(NC=O)nc2-c2ccccc2)ccc1=O`, the melting point lay in the range of 232 to 234 °C.

`COc1nc(C)cc(C(=O)O)n1` showed a melting point of 161 to 163 °C.

As to `Cc1nc(-c2ccc(NS(=O)(=O)c3sc4ccc(F)cc4c3C)c(S(C)(=O)=O)c2)cs1`, the melting point lay in the range of 217 to 220 °C.

Regarding `Nc1cc(F)c([N+](=O)[O-])cc1F`, the melting point is 153 °C.

In turn, `CC1(C)OC(c2cccs2)CN1C(=O)C(Cl)Cl` (centres undefined) gave a melting point of 104 to 105 °C.

The compound `O=C(O)C1CSC(c2ccccc2OCCCO[N+](=O)[O-])N1` (centres undefined) returned a melting point of 131 to 134 °C.

`Nc1nc(Cl)cc(NC2C=CC(CO)C2)n1` (centres undefined): the melting point is 132 to 134 °C.

With `CNC(=O)c1cccc(NC(=O)Cc2cccc3sccc23)c1`, the melting point was 192 °C.

For the compound `NC(=O)c1c(N)oc2ccccc2c1=O`, the melting point was in the range of 264 to 266 °C.

On to `O=C1NC(=O)C(SCCO)=C1SCCO`, for which the melting point was in the range of 46 to 50 °C.

Take `CS(=O)(=O)c1ccc(C(=O)C2C(=O)CCCC2=O)c(Cl)c1C1=NOC2OCCC12` (centres undefined): the melting point was determined as 119 °C.

As to `Cc1cccc(C)c1N1C(=O)CN(C(C)C)C1=S`, the melting point lay within 135 to 137 °C.

As for `O=C(O)c1ccc(-c2n[nH]c3c2Cc2ccccc2-3)cc1`, the melting point is over 320 °C.

On to `O=C1c2ccc(Cl)cc2C(O)N1c1ccc2ccc(Cl)nc2n1` (centres undefined), for which the melting point was in the range of 220 to 230 °C.

`CCCc1nc2c(N)nc3ccccc3c2n1CCCCN(O)C(=O)NC(C)C`: the melting point fell in the range of 158 to 160 °C.

In turn, `Clc1ccc2c(c1)N=C1C=CC=CN1CO2` registered a melting point of 175 to 177 °C.

The compound `CC(C)Sc1c(-c2ccc(S(C)(=O)=O)cc2)cnn(CC(F)(F)F)c1=O` had a melting point of 165 to 167 °C.

As to `Cc1cn2c(=O)c(C(=O)O)cnc2c2cc([N+](=O)[O-])ccc12`, the melting point lay within 301 to 303 °C.

With `O=C1N(C(c2ccccc2)c2ccccc2)c2ccccc2C12COc1cc3c(cc12)OCCCO3` (centres undefined), the melting point lay in the range of 165 to 168 °C.

The compound `Cn1cc(-c2ccc(F)cc2)c(C(=O)O)n1` showed a melting point of 146 to 147 °C.

`C/C=C(\c1ccccc1)c1cc2cc(OC)ccc2[nH]1`: the melting point lay in the range of 128 to 130 °C.

In the case of `Cc1ccccc1-c1ccc(C(=O)N2Cc3ccc(C(=O)NCc4cccc(N)c4)n3Cc3ccccc32)cc1C`, the melting point was in the range of 105 to 115 °C.

`C=CCc1cc(C=CNC(C)=O)ccc1OCC1CO1` (centres undefined) showed a melting point of 135 to 136 °C.

Compound `O=C(O)CN1CCC(Cc2ccccc2)CC1` yielded a melting point of 250 to 252 °C.

Regarding `O=C1Cc2cc(C3=NNC(=O)C4CC34)ccc2N1` (centres undefined), the melting point lay in the range of 305 to 307 °C.

Compound `CCOC(=O)C1=C(C)NC(C)=C(C(=O)OCC)C1c1cccc(F)c1F` registered a melting point of 161 to 162 °C.

`Cc1cc(OC(F)F)ccc1NC(=O)c1cccc(I)c1C(=O)NC(C)C` registered a melting point of 207 to 209 °C.

Compound `COc1cc2c(cc1OC)-c1c(-c3nc(-c4ccccc4)no3)c(-c3cc(C)c(O)c(C)c3)c(C)n1C(C)C2` (racemic) showed a melting point of 203 to 206 °C.

The compound `COC(=O)CCCc1cc2cc(Cl)ccc2n1S(=O)(=O)c1ccc2nc(N)oc2c1` registered a melting point of 238 °C.

Compound `C=C1N(C)C(=O)OC12CCN(Cc1ccccc1)CC2` yielded a melting point of 96 to 97 °C.

In turn, `Cc1cc(Br)cc(Br)c1NC(=N)Nc1c(C)cc([N+](=O)[O-])cc1Br` yielded a melting point of 193 to 195 °C.

`Cn1nc(-c2c(F)cccc2Cl)nc1-c1ccc(OCc2ccc(C(F)(F)F)cc2F)c(Cl)c1`: the melting point fell in the range of 109 to 111 °C.

As to `O=C(O)CCCc1cc2nc(C(F)(F)F)ccc2n1S(=O)(=O)c1cccc2ccccc12`, the melting point was determined as 195 °C.

With `CC(N)(C(N)=O)C(F)F` (centres undefined), the melting point was in the range of 77 to 80 °C.

`CON(C)C(=O)c1cc(C)c(C(c2cc(F)ccc2F)S(=O)(=O)c2ccc(F)cc2)cn1` (centres undefined): the melting point was 156 to 158 °C.
